Where a name gives a salt, the structure may show the parent alone.
Columns and labels:
Ca-755 = assay: Antitumor effect on grafted solid tumor Ca-755; type: in vivo, mice and rats
[1] = test system: Alveolar mammary cancer RMK-1; assay: Antitumor effect on grafted alveolar mammary cancer RMK-1; type: in vivo, mice and rats
S-180 = test system: S-180; design: species or system mice and rats; conditions: in vivo
S-37 = assay: Antitumor effect on grafted solid tumor S-37; type: in vivo, mice and rats
Hepatoma G-60 = assay: Antitumor effect on grafted hepatoma G-60; type: in vivo, mice and rats
Hepatoma G-61 = assay: Antitumor effect on grafted hepatoma G-61; type: in vivo, mice and rats
[2] = test system: Large intestine adenocarcinoma AKATOL; assay: Antitumor effect on grafted large intestine adenocarcinoma AKATOL; type: in vivo, mice and rats
Lewis lung carcinoma LL = assay: Antitumor effect on grafted Lewis lung carcinoma LL; type: in vivo, mice and rats
in vivo = conditions: mouse
P-388 = assay: Antitumor effect on grafted hemoblastoses (P-388), extension of lifespan; type: in vivo, mice and rats
Hepatoma G-22c = assay: Antitumor effect on grafted hepatoma G-22c; type: in vivo, mice and rats; conditions: G-22c; days 2-6; effective dose range per compound, 24 h × 5
L 1210 = assay: Antitumor effect on grafted hemoblastoses (L 1210), extension of lifespan; type: in vivo, mice and rats
MOPG-406 = assay: Antitumor effect on grafted hemoblastoses (MOPC-406), extension of lifespan; type: in vivo, mice and rats
[3] = test system: Viral leukosis Mazurenko LMC-1; assay: Antitumor effect on grafted hemoblastoses (LMC-1), extension of lifespan; type: in vivo, mice and rats; conditions: LMC-1; days 2-6 after grafting; effective dose range per compound, 24 h × 5
[4] = test system: adrenalectomized rat youngsters; assay: Lifespan of adrenalectomized rat youngsters (biological test for the glucocorticoidal activity); type: in vivo; conditions: 25-days adrenalectomized rats
[5] = cited from earlier work
mice = conditions: mouse, in vivo
La = test system: La; design: species or system mice and rats; conditions: in vivo
cell receptors = conditions: effects are reversible; cited from earlier work
mice fibroblasts L-929 = conditions: effects are reversible; cited from earlier work

NC(Cc1ccc(N(CCCl)CCCl)cc1)C(=O)O (stereo not drawn) [Sarcolysine, β-[p-di(2-chloroethyl)aminophenyl]-α-alanine hydrochloride, reference compound]
Maximum tumor growth inhibition (Ca-755; in vivo): 83% | Maximum tumor growth inhibition ([1]; in vivo): +86% | Maximum tumor growth inhibition (S-180): 76% | Maximum tumor growth inhibition (S-37; in vivo): 95% | Maximum tumor growth inhibition (Hepatoma G-60; in vivo): 90% | Maximum tumor growth inhibition (Hepatoma G-61; in vivo): 87% | Maximum tumor growth inhibition ([2]; in vivo): 56% | Maximum tumor growth inhibition (Lewis lung carcinoma LL; in vivo): 58%

C[C@]12C=CC(=O)C=C1CC[C@@H]1[C@@H]2[C@@H](O)C[C@@]2(C)[C@H]1CC[C@]2(O)C(=O)CO [Prednisolone, pregnadiene-1,4-triol-11β,17α,21-dione-3,20, reference compound]
Maximum tumor growth inhibition (Ca-755; in vivo): 70% | Maximum tumor growth inhibition (S-37; in vivo): 44% | Maximum tumor growth inhibition (Hepatoma G-61; in vivo): 44% | Maximum tumor growth inhibition ([2]; in vivo): 67% | Maximum tumor growth inhibition (Lewis lung carcinoma LL; in vivo): 30%

C[C@]12CC[C@@H]3c4ccc(OC(=O)N(CCCl)CCCl)cc4CC[C@H]3[C@@H]1CC[C@@H]2OP(=O)(O)O [Estracyte, estra-1,3,5-(10)treine-3,17β-diol-3N-[bis-(2-chloroethyl)carbamate-17-sodium phosphate, reference compound]
Maximum tumor growth inhibition (Ca-755; in vivo): +6% | Maximum tumor growth inhibition (S-180): +23% | Maximum tumor growth inhibition (S-37; in vivo): 85% | Maximum tumor growth inhibition (Lewis lung carcinoma LL; in vivo): 29%

O=C(O)CCCc1ccc(N(CCCl)CCCl)cc1 [Chlorambucyl, p-di-(2-chloroethyl)aminophenylbutyric acid, reference compound]
MTD (in vivo): 25 mg/kg

C[C@]12CCC(=O)C=C1CC[C@@H]1[C@@H]2CC[C@@]2(C)[C@H]1CC[C@]2(O)C(=O)CO [11-Desoxy-17α-hydroxycorticosterone, 11-desoxy-17α-hydroxycorticosterone, reference compound]
Maximum tumor growth inhibition (Ca-755; Ca-755, days 2-6, effective dose range per compound, 24 h × 5, "+" = stimulation of tumor growth): +105% | Extension of the lifespan of the animals (ELA) (P-388; P-388, days 2-6 after grafting, effective dose range per compound, 24 h × 5): -7% | Maximum tumor growth inhibition ([1]; RMK-1, days 3-7, effective dose range per compound, 24 h × 5, "+" = stimulation of tumor growth): +4% | Maximum tumor growth inhibition (Hepatoma G-22c): 3% | Maximum tumor growth inhibition (S-37; S-37, days 2-6, effective dose range per compound, 24 h × 5): 29% | Extension of the lifespan of the animals (ELA) (L 1210; L 1210, days 2-6 after grafting, effective dose range per compound, 24 h × 5): 6% | Maximum tumor growth inhibition (Hepatoma G-60; G-60, days 6-10, effective dose range per compound, 24 h × 5): 38% | Extension of the lifespan of the animals (ELA) (MOPG-406; MOPG-406, days 2-6 after grafting, effective dose range per compound, 24 h × 5): 0% | Maximum tumor growth inhibition (Hepatoma G-61; G-61, days 7-11, effective dose range per compound, 24 h × 5): 37% | Maximum tumor growth inhibition ([2]; AKATOL, days 2-6, effective dose range per compound, 24 h × 5, "+" = stimulation of tumor growth): +41% | Extension of the lifespan of the animals (ELA) [3]: 17% | extension of lifespan of adrenalectomized rat youngsters [4]: 115% | Maximum tumor growth inhibition (Lewis lung carcinoma LL; LL, days 2-6, effective dose range per compound, 24 h × 5): 28%

C[C@]12C=CC(=O)C=C1CC[C@@H]1[C@@H]2[C@@H](O)C[C@@]2(C)[C@H]1CC[C@]2(O)C(=O)COC(=O)CCCc1ccc(N(CCCl)CCCl)cc1 [Prednimustine, pregna-1,4-diene-3,20-dione, 11β17,21-trihydroxy-21-[p-di(2-chloroethyl)aminophenylbutyrate]]
hematotoxicity ([5]; in vivo): Hematotoxicity usually limiting administration | side effects ([5]; oncological clinic): associated mainly with hematotoxicity

C[C@]12CCC(=O)C=C1CC[C@@H]1[C@@H]2CC[C@@]2(C)[C@H]1CC[C@]2(O)C(=O)COC(=O)CCCc1ccc(N(CCCl)CCCl)cc1 [11-desoxy-17α-hydroxy-21-[p-di(2-chloroethyl)aminophenylbutyrate] corticosterone]
Extension of the lifespan of the animals (ELA) (P-388; in vivo): 82% | Extension of the lifespan of the animals (ELA) (L 1210; in vivo): 20% | Extension of the lifespan of the animals (ELA) (MOPG-406; in vivo): 70% | MTD (in vivo): 350 mg/kg | toxicity (relative) (mice): even lower toxicity | Extension of the lifespan of the animals (ELA) (La): 18%

C[C@]12CCC(=O)C=C1CC[C@@H]1[C@@H]2[C@@H](O)C[C@@]2(C)[C@H]1CC[C@]2(O)C(=O)COC(=O)N(CCCl)CCCl [11β,17α,21-trihydroxy-pregnene-4-3,20-dione-21-[bis(2-chloroethyl)carbamate]]
reaction with cell receptors (cell receptors): react with cell receptors | growth of cultures of mice fibroblasts L-929 (mice fibroblasts L-929): inhibit growth of cultures of mice fibroblasts L-929

CC1(C)O[C@@H]2C[C@H]3[C@@H]4CCC5=CC(=O)C=C[C@]5(C)[C@@]4(F)[C@@H](O)C[C@]3(C)[C@]2(C(=O)COC(=O)N(CCCl)CCCl)O1 [9αF,11β,16α, 17α,26-tetraoxypregna-1,4-diene-3,20-dione-21-[bis-(2-chloroethyl)carbamate], 16,17-acetonide]
reaction with cell receptors (cell receptors): react with cell receptors | growth of cultures of mice fibroblasts L-929 (mice fibroblasts L-929): inhibit growth of cultures of mice fibroblasts L-929
